Experiment [1] addresses T1, PTPN2 (HiBIT-PTPN2 in 293T.109 cells) (Homo sapiens, UniProt P17706).
T1 construct: expressed in transfected cells; host or cells: 293T.109 (293T WT from ATCC)
T1 sequence (P17706 1-415): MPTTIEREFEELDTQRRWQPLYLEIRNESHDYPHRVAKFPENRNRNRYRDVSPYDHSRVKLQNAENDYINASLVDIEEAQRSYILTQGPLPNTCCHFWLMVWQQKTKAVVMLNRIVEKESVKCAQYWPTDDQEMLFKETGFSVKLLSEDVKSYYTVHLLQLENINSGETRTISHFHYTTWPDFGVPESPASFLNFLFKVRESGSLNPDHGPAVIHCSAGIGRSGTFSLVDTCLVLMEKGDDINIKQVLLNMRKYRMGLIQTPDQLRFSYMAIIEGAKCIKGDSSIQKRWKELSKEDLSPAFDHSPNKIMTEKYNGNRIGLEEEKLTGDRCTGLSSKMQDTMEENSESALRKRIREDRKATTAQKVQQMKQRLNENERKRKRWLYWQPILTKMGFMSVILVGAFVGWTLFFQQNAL
The experiment can be described thus: HiBiT Degradation 293T.109 PTPN2 (Nano-Glo HiBiT Lytic Assay). The note with it: 24.0 hours. Type of experiment: cell-based. In outline:
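293T.109 cells with ectopic N-terminal HiBiT-tagged PTPN2 (5000/well) exposed to compounds for 24 h at 37 °C, 5% CO2; 11-point half-log titration from 10 μM top, duplicates. Remaining HiBiT-PTPN2 read as luminescence with Nano-Glo HiBiT lytic reagent, normalised to untreated cells (0%) and reagent-free wells.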
In general terms: With HiBiT, luminescence reflects the tagged protein that the partner subunit can reach.

The target in experiment [2] is T2, PTPN2 (B16F10.4 cells) (Mus musculus, UniProt Q06180).
T2 construct: HiBiT; host or cells: B16F10.4
T2 sequence (Q06180 1-406): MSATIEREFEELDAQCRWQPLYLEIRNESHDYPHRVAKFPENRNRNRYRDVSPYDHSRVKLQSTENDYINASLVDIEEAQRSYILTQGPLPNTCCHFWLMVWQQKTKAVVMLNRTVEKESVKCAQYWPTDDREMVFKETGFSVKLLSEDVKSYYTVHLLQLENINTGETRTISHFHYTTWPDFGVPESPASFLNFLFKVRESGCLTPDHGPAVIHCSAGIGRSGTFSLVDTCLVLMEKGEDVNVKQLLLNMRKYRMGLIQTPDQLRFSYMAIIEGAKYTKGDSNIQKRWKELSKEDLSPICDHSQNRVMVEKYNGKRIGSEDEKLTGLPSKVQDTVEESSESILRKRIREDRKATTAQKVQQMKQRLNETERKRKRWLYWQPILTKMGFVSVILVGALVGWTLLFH
The experiment can be described thus: HiBiT Degradation B16F10.4 PTPN2. The note with it: 24.0 hours. In kind it is cell-based.

Drawing on patent US20250302815A1, “PROTEIN TYROSINE PHOSPHATASE TARGETING LIGANDS” (CALICO LIFE SCIENCES LLC, priority 2021, published 2025), this text covers DC50 for six molecules.

Take `Cn1c(=O)n(C2CCC(=O)NC2=O)c2ccc(C3CCN(C(=O)Nc4cccc(CS(=O)(=O)N5CC[C@H](Nc6cccc(-c7sc(C(=O)O)c(OCC(=O)O)c7Cl)c6)CC5(C)C)c4)CC3)c(F)c21` (stereo partly drawn) [Example 152, 3-(carboxymethoxy)-4-chloro-5-[3-[[(4S)-1-[[3-[[4-[1-(2,6-dioxo-3-piperidyl)-4-fluoro-3-methyl-2-oxo-benzimidazol-5-yl]piperidine-1-carbonyl]amino]phenyl]methylsulfonyl]-2,2-dimethyl-4-piperidyl]amino]phenyl]thiophene-2-carboxylic acid]: the half-maximal degradation concentration (DC50) in experiment [1] and in experiment [2] was 50 to 200 nM in each case.

As to `CC1(C)C[C@@H](Nc2cccc(-c3sc(C(=O)O)c(OCC(=O)O)c3Cl)c2)CCN1S(=O)(=O)Cc1cccc(NC(=O)CNc2ccc3c(c2)C(=O)N(C2CCC(=O)NC2=O)C3=O)c1` (stereo partly drawn) [Example 34, 3-(carboxymethoxy)-4-chloro-5-[3-[[(4S)-1-[[3-[[2-[[2-(2,6-dioxo-3-piperidyl)-1,3-dioxo-isoindolin-5-yl]amino]acetyl]amino]phenyl]methylsulfonyl]-2,2-dimethyl-4-piperidyl]amino]phenyl]thiophene-2-carboxylic acid], the DC50 in experiment [1] and in experiment [2] was 200 to 1000 nM each time.

Consider `Cn1c(=O)n(C2CCC(=O)NC2=O)c2ccc(CC3CCN(C(=O)Nc4cccc(CS(=O)(=O)N5CC[C@H](Nc6cccc(-c7sc(C(=O)O)c(OCC(=O)O)c7Cl)c6)CC5(C)C)c4)CC3)cc21` (stereo partly drawn) [Example 175, 3-(carboxymethoxy)-4-chloro-5-[3-[[(4S)-1-[[3-[[4-[[1-(2,6-dioxo-3-piperidyl)-3-methyl-2-oxo-benzimidazol-5-yl]methyl]piperidine-1-carbonyl]amino]phenyl]methylsulfonyl]-2,2-dimethyl-4-piperidyl]amino]phenyl]thiophene-2-carboxylic acid], for which the 50% degradation concentration (DC50) (usually the concentration giving 50% degradation) in experiment [1] is 50 to 200 nM; in experiment [2], below 50 nM.

Turning to `CC1(C)C[C@H](Nc2cccc(-c3sc(C(=O)O)c(OCC(=O)O)c3Cl)c2)CCN1S(=O)(=O)Cc1cccc(NC(=O)N2CCC(c3ccc4c(C5CCC(=O)NC5=O)cnn4c3)CC2)c1` (stereo partly drawn) [Example 193, 3-(carboxymethoxy)-4-chloro-5-(3-(((4R)-1-((3-(4-(3-(2,6-dioxopiperidin-3-yl)pyrazolo[1,5-a]pyridin-6-yl)piperidine-1-carboxamido)benzyl)sulfonyl)-2,2-dimethylpiperidin-4-yl)amino)phenyl)thiophene-2-carboxylic acid], the half-maximal degradation concentration (DC50) in experiment [1] and in experiment [2] was 200 to 1000 nM each time.

On to `CC1(C)C[C@@H](Nc2cccc(-c3sc(C(=O)O)c(OCC(=O)O)c3Cl)c2)CCN1S(=O)(=O)Cc1cccc(NC(=O)N2CCC(c3ccc4c5c(cccc35)C(=O)N4C3CCC(=O)NC3=O)CC2)c1F` (stereo partly drawn) [Example 128, 3-(carboxymethoxy)-4-chloro-5-(3-(((4S)-1-((3-(4-(1-(2,6-dioxopiperidin-3-yl)-2-oxo-1,2-dihydrobenzo[cd]indol-6-yl)piperidine-1-carboxamido)-2-fluorobenzyl)sulfonyl)-2,2-dimethylpiperidin-4-yl)amino)phenyl)thiophene-2-carboxylic acid], for which the results for the DC50 in experiment [1] and in experiment [2] were 50 to 200 nM and below 50 nM, respectively.

For the molecule `CC1(C)C[C@@H](Nc2cccc(-c3sc(C(=O)O)c(OCC(=O)O)c3Cl)c2)CCN1S(=O)(=O)Cc1cccc(NC(=O)N2CCC(c3ccc4c(c3)n(C3CC3)c(=O)n4C3CCC(=O)NC3=O)CC2)c1` (stereo partly drawn) [Example 154, 3-(carboxymethoxy)-4-chloro-5-[3-[[(4S)-1-[[3-[[4-[3-cyclopropyl-1-(2,6-dioxo-3-piperidyl)-2-oxo-benzimidazol-S-yl]piperidine-1-carbonyl]amino]phenyl]methylsulfonyl]-2,2-dimethyl-4-piperidyl]amino]phenyl]thiophene-2-carboxylic acid], the 50% degradation concentration (DC50) in experiment [1] and in experiment [2] was 50 to 200 nM throughout.
